Active and inactive are the calls of the source. The rule behind the calls is not given here.
Columns and labels:
Cytotoxicity = test: inhibitors of PAF-induced NFkB signaling in CF airway cells, dose response, cell-based, uHTS hits, panel, cytotoxicity readout (AID 624344); details: CF bronchial epithelial cells, mean of runs
[1] = as above; details: CF bronchial epithelial cells, PAF-induced NFkB reporter inhibition; with PAF, mean of runs

SMILES	IC50 (Cytotoxicity)	IC50 [1]
CC(=O)c1ccc(Nc2ncnc3ccc(Br)cc23)cc1	37 µM	2.18 µM
NC(=O)c1nsc(C(=O)N(c2ccccc2F)C(C(=O)NCc2ccc(F)cc2)c2ccc(O)cc2)c1N (stereo not given)	6.55 µM	2.08 µM
COc1ccc(-c2cn[nH]c2-c2ccc(OCc3ccccc3F)cc2O)cc1OC	18 µM	3.57 µM
COc1cc(-c2cc(C(=O)Nc3ccc(S(=O)(=O)NCc4ccco4)cc3)c3ccccc3n2)cc(OC)c1OC	7.44 µM	3.96 µM
COc1ccc(-n2ncc3c(N4CCN(Cc5ccccc5)CC4)ncnc32)cc1	6.95 µM	3.85 µM
Cc1ccc(N(C)C(=O)c2cc(S(=O)(=O)N3CCCCC3)c[nH]2)cc1	> 79 µM (inactive)	11.5 µM
Cc1ccc(S(=O)(=O)N2[C@@H](c3ccc(C(C)(C)C)cc3)C(C(=O)O)=CC[C@H]2c2ccc(C(C)C)cc2)cc1	55.7 µM (inactive)	12.9 µM
Cn1c(N2CCN(C(c3ccccc3)c3ccccc3)CC2)nc2c1c(=O)[nH]c(=O)n2C	7.56 µM	3.69 µM
COc1ccc(-c2cnc3c(NC=O)cc(-c4ccc(C(=O)N5CCOCC5)cc4)cn23)cc1OC	14.7 µM	2.94 µM
CC(C)=CCc1c(O)cc(O)c2c1OC(c1ccc(O)cc1)CC2=O (stereo not given)	43.6 µM	4.52 µM
CNC(=O)COC(=O)c1ccccc1C(=O)c1ccc(Cl)c([N+](=O)[O-])c1	3.7 µM	1.01 µM
O=C(COC(=O)c1ccccc1C(=O)c1ccc(Cl)c([N+](=O)[O-])c1)NC1CCCCCC1	5.03 µM	1.6 µM
S=c1[nH]nc(-c2ccncc2)n1/N=C/C(Cl)=C\c1ccccc1	35 µM	1.06 µM
C[C@@H]1CN([C@H](C)CO)C(=O)c2cc(NC(=O)Nc3ccc(C(F)(F)F)cc3)ccc2O[C@H]1CN(C)S(=O)(=O)c1ccccc1	77.2 µM (inactive)	9.21 µM
CCOC(=O)Oc1c(OC)cc(C(=O)O[C@@H]2C[C@@H]3CN4CCc5c([nH]c6cc(OC)ccc56)[C@H]4C[C@@H]3[C@H](C(=O)OC)[C@H]2OC)cc1OC	58.8 µM (inactive)	4.91 µM
Cc1nnc(NC(=O)Nc2ccc(Cl)c(Cl)c2)s1	15.3 µM	2.78 µM
COc1cccc2sc(N(CCCN(C)C)C(=O)CCS(=O)(=O)c3ccccc3)nc12	4.84 µM	2.34 µM
O=C(NCc1ccccc1)C1=C[C@H](c2csc3ccccc23)C[C@H](OCc2ccc(CO)cc2)O1	12.8 µM	inactive
Cn1ncc2c(O/N=C(\N)c3ccc(C(C)(C)C)cc3)ncnc21	34.9 µM	8.28 µM
COc1ccc(-c2cn[nH]c2-c2ccc(OCc3ccccc3)cc2O)cc1	16.7 µM	3.7 µM
O=C(Nc1ccc(N2CCN(C(=O)c3ccccc3F)CC2)cc1)c1cncc(Br)c1	54.7 µM (inactive)	2.67 µM
N#Cc1ccsc1NC(=O)c1ccc(Cl)c([N+](=O)[O-])c1	18.4 µM	4.95 µM
C=C(C)COc1ccc(-c2[nH]ncc2-c2ccc(OC)cc2)c(O)c1	24 µM	5.07 µM
COc1ccc(OC)c(-c2nnc3n2N=C(c2ccc(OC)c(OCC4CC4)c2)CS3)c1	47.7 µM	3.87 µM
O=C(COC(=O)c1ccc2[nH]c3c(c2c1)CCCC3)Nc1ccccc1Cl	36.6 µM	inactive
O=C(Nc1ccc(Cl)cc1)c1nc[nH]c1C(=O)NCCCCNC(=O)c1[nH]cnc1C(=O)Nc1ccc(Cl)cc1	1.11 µM	1.05 µM
COc1cc(NC(=O)c2csc(-c3ccncc3)n2)cc(C(=O)Nc2cccc(C(F)(F)F)c2)c1	46 µM	4.32 µM

SMILES	IC50 (Cytotoxicity)	IC50 [1]
CS(=O)(=O)Nc1ccc(-c2cnc3cccnn23)cc1	> 79 µM (inactive)	2.5 µM
CCOC(=O)c1c(-c2ccc(C)cc2)csc1NC(=O)c1ccc(N2C(=O)CCC2=O)cc1	61 µM (inactive)	inactive
COc1ccc2cc3c(N)nn(C(=O)Cc4ccccc4OC)c3nc2c1	47.4 µM	2.67 µM
COC(=O)c1ccc2c(c1)C(C)(C)C(/C=C/c1ccccc1O)=[N+]2C	35.4 µM	5.88 µM
Cc1nn(-c2ccccc2)c(N2CCCC2)c1/C=N/NC(=O)c1cc(-c2ccccc2)nc2ccccc12	58.7 µM (inactive)	5.62 µM
Brc1ccc2ncnc(NCc3cccnc3)c2c1	66.2 µM (inactive)	2.25 µM
CNc1ccc2ncc(-c3cccc(C(=O)N(C)C)c3)n2n1	53.7 µM (inactive)	0.169 µM
CC(C)C[C@@H](CN1CCCC1CN1C(=S)NC[C@@H]1Cc1ccc(O)cc1)N1C[C@H](Cc2ccc(O)cc2)N(CC2CCCCCC2)C1=S (stereo not given in full)	25.2 µM	7.98 µM
CC(NC(=O)OCc1ccccc1)C(=O)Oc1cc2oc(=O)cc(-c3ccccc3)c2cc1Cl (stereo not given)	27.9 µM	1.34 µM
Cc1nc([N+](=O)[O-])c(Sc2nc3ccc([N+](=O)[O-])cc3[nH]2)n1Cc1ccccc1	8.03 µM	3.5 µM
COc1ccc2[nH]c3c(c2c1)CC(C)NC3=O (stereo not given)	55.3 µM (inactive)	1.3 µM
O=C1CC(=O)OC(c2ccc([N+](=O)[O-])cc2)O1	1.79 µM	2.59 µM
CCOC(=O)Nc1ccc2c(c1)N(C(=O)CCN(CC)CC)c1ccccc1S2=O (stereo not given)	34.5 µM	5.94 µM
CN(Cc1ccccc1)c1ncnc(N)c1[N+](=O)[O-]	54.8 µM (inactive)	3.49 µM
CCN1CCN(Cc2ccc(NC(=O)c3ccc(C)c(NC(=O)c4cccc5[nH]ccc45)c3)cc2C(F)(F)F)CC1	47.7 µM	7.33 µM
Cc1cc2cc(CCNC(=O)C(=O)c3c[nH]c4ccccc34)c(=O)[nH]c2cc1C	24.3 µM	5.72 µM
O=C(c1nnsc1S(=O)c1ccc(Cl)cc1)N1CCOCC1 (stereo not given)	10.7 µM	1.87 µM
CC(=O)c1ccc(NC(=O)Nc2ccc3c(c2)N(C)C(=O)CS3)cc1	29.2 µM	5.14 µM
CC(C)c1nc(Cl)c(C#N)c2c1CCCC2	71.6 µM (inactive)	3.57 µM
CC(=O)Oc1c(Br)cc(N(C(C)=O)S(=O)(=O)c2ccccc2)c2ccccc12	9.15 µM	7.32 µM
C=CCn1cnc2c(c1=O)c1nc3ccccc3nc1n2/N=C/c1cc(OC)c(OC)c(OC)c1	5.94 µM	4.18 µM
CC(C)(C)S(=O)N1Cc2cc(C(=O)NCC(F)(F)F)nc(-c3cccc(-c4cccc(F)c4)c3)c2[C@@H]1CCO (stereo not given in full)	16 µM	5.86 µM
Nc1nc(N)nc(-c2cc(O)ccc2O)n1	21.2 µM	3.31 µM
CCc1cc(-c2[nH]ncc2-c2ccc(OC)cc2)c(O)cc1O	31 µM	3.56 µM
CCOC(=O)c1[nH]c2c(c1C)C(=O)CC(c1ccco1)C2 (stereo not given)	> 79 µM (inactive)	inactive
COc1ccc(COC(=O)C2=C(C)NC(=O)NC2c2ccc(F)cc2)cc1 (stereo not given)	39.8 µM	8.9 µM
Cc1csc(CNc2ncnc3ccc(-c4ccoc4)cc23)c1	13.8 µM	< 0.3 µM

SMILES	IC50 (Cytotoxicity)	IC50 [1]
c1cc(-c2cnc3cccnn23)c2cccnc2c1	> 79 µM (inactive)	2.33 µM
COc1cccc(-c2ccc3ncnc(NCc4cccnc4)c3c2)c1	11.3 µM	1.23 µM
O=C(Nc1ccc(F)cc1)Nc1ccc(N2CCCC2)c(S(=O)(=O)Nc2ccccc2Cl)c1	42.5 µM	7.2 µM
CCOc1cccc(-c2nnc3sc(C4CCCCC4)nn23)c1	33.3 µM	2.88 µM
CC(C)(C)OC(=O)NCCCCCNC(=O)c1nc[nH]c1C(=O)NCC(=O)OCc1ccccc1	9.6 µM	3.56 µM
C=CCc1cc(S(=O)(=O)c2ccc(O)c(CC=C)c2)ccc1O	56.8 µM (inactive)	6.34 µM
CCOc1cc(Br)c(Br)c(C=Nc2ccc(NC(C)=O)cc2)c1O	> 79 µM (inactive)	3.91 µM
Cn1c(Oc2ccc(Cl)cc2)c(C=O)c2ccccc21	13.5 µM	3.96 µM
C=C1C(=O)[C@]23C[C@H]1CC[C@H]2[C@]1(C)[C@@H](OC(C)=O)CC[C@@](C)(C(=O)O)[C@H]1C[C@@H]3O	8.28 µM	0.938 µM
CCOC(=O)c1c(-c2ccccc2)oc2cc(Br)c(O)c(C=O)c12	13.3 µM	3.05 µM
CCOC(=O)C1=C(CC)Nc2ccccc2N=C1NC(=O)c1oc2ccccc2c1C	6.1 µM	4.43 µM
OCCCNc1ncnc2scc(-c3ccc(Cl)cc3)c12	32.6 µM	2.35 µM
CCOc1ccccc1NC(=S)Nc1ccc2cn[nH]c2c1	58.5 µM (inactive)	5.7 µM
Cc1cccc(NS(=O)(=O)c2ccc(-c3cnc(C4CC4)o3)cc2)c1C	56.2 µM (inactive)	6.37 µM
Cc1ccc2c(c1)C(=O)C(=O)N2Cc1ccc(C(F)(F)F)cc1	> 79 µM (inactive)	inactive
Cc1nnc(SCC(=O)N2CCC(c3noc4ccc(F)cc34)CC2)s1	> 79 µM (inactive)	1.18 µM
Nc1ncc(-c2ccccc2)c(-c2ccc(O)cc2O)n1	> 79 µM (inactive)	4.01 µM
C=C(C)[C@@H]1CCC2(C(=O)O)CC[C@]3(C)[C@H](CC[C@@H]4[C@@]5(C)CCC(=O)C(C)(C)[C@@H]5CC[C@]43C)[C@@H]12 (stereo not given in full)	12.9 µM	8.27 µM
Cc1ccc(NC(=O)c2cc(C(=O)c3cc(Cl)ccc3O)cn(-c3ccc(C)cc3)c2=O)cc1	53 µM (inactive)	9.4 µM
COc1ccc2[nH]c(=O)c(CN(Cc3cccnc3)S(=O)(=O)c3ccccc3F)cc2c1	3.68 µM	2.1 µM
C=C1C(C)C2C(Cc3ccccc3)NC(=O)C23OC(=O)/C=C/C(O)CCCC(C)C/C=C/C3C1O (stereo not given)	2.32 µM	1.25 µM
COc1ccc(Cc2nnc(SCc3ccc([N+](=O)[O-])cc3)o2)cc1	41.8 µM	1.76 µM
O=S1(=O)CC=C(CSC(=S)NC2CCS(=O)(=O)C2)C1 (stereo not given)		3.05 µM
O=C1C=C(NC2=CC3OC(c4ccccc4)OCC3OC2=O)CCC1 (stereo not given)		3.74 µM
O=C(N/N=C/c1ccccc1Cl)c1[nH]c2ccc(Br)cc2c1-c1ccccc1		10.7 µM
